Patent US12312378B2, “Glucosamine derivatives for the prevention or treatment of joint disorders” (RISEN (SUZHOU) PHARMA TECH CO., LTD., priority 2017, dated 2025)
Entries after “also recorded” stand apart in the source; their conditions may differ. Marks after values point to notes of the source that are not given here.

How the values were obtained:
[1] = test system: MIA-induced OA rat model; assay: Monosodium iodoacetate-induced osteoarthritis (MIA) model in rat knee; assay type: in vivo
Method: Osteoarthritis was induced by intra-articular (i.a.) injection of MIA solution in the rat knee joint as follows: Briefly, rats were anesthetized with isoflurane and given a single i.a. administration of 2 mg of MIA dissolved in saline through the intrapatellar ligament of the right knee. MIA was administered in a volume of 50 μL. Basal readings were established using a group of control rats injected with 10% ethanol in water. Rats were randomized by initial body weight to groups of 6 or 7. After MIA injection, the MIA groups began treatment with either vehicle, or a test compound at a preset dose regime for a period of 28 days. Clinical observations were recorded, including body weight, joint swelling, and weight bearing, on pre-induction day (day 0), day 3, 5, 7, 14, 21 and/or 28. At the end of the study, the animals were euthanized by CO2 and sacrificed. Joint samples including the tibia and femur were sectioned in the coronal plane and stained using both H&E and Safranin-O. Knee joints were examined and scored for cartilage degeneration, the presence of osteophytes, the amount and extent of calcified cartilage and subchondral bone damage, and the amount of synovial membrane inflammation using the Osteoarthritis Research Society International (OARSI) scoring system put forth in 2010 (Kraus, V. B. et al., Osteoarthritis Cartilage, 2010, Suppl 3:S35-52).
Studies of compound 16 in the MIA model were conducted as described above.

[2] = test system: MMT-induced model of osteoarthritis; assay: Medial meniscus transection (MMT) model in rats; assay type: in vivo, rat; details: for Weight bearing (right paw, %), mean: G2, gavage 4 times every day
Text: In the rat MMT model, the unilateral knee (right knee) was cleaned and prepped for surgery. An incision was made over the medial aspect of the femoro-tibial joint. The medial collateral ligament was exposed via blunt dissection and transected to reflect the meniscus toward the femur. A full thickness cut was made through the meniscus at its narrowest point. The joint space was returned to normal, and the skin was closed and the animal allowed to recover. For the present study, at second day post MMT induction animals, G1 and G2 animals were treatment with vehicle and test compound 16 respectively. Animals were dosed 4 times every day, and were dosed by gavage for 4 weeks.

[3] = Pharmacokinetic study in SD rats: plasma GlcNBu after oral gavage of test compound; assay type: in vivo, Sprague-Dawley (SD) rats; design: key: (—): not detected; details: Table 5: plasma GlcNBu after oral administration of the indicated compound, 0.93 mmol/kg
Method: A test compound is dissolved in water at a concentration determined by the desired dose and dosing volume for the specific animal to which the compound is to be administered. A calculated volume of dosing solution is administered to the animal (PO, SQ, IP, or IV). A blood sample is collected following administration of the test compound at specific time points (such as 0 minutes (min), 5 min, 10 min, 15 min, 30 min, 1 hour (h), 1.5 h, 2 h, 3 h, 4, 6 h, etc.). The blood sample is converted to a plasma sample using standard techniques. The plasma samples are analyzed to determine the concentration of the test compound and, in some cases, GlcNBu.
According to the above general procedure, SD rats were grouped randomly into groups of six (n=6). The test compound, GlcNBu or a compound provided herein, was administered to the animals by oral gavage at a dose of 0.93 mmol/kg. For illustration purposes, GlcNBu was given at an oral dose of 232 mg/kg (0.93 mmol/kg), and compound 16 was administered at an equal molar dose (0.93 mmol/kg, i.e., 362 mg/kg). At pre-set time points, blood was taken through orbital venous plexus extraction, and the samples were analyzed using LC/MS-MS to determine the GlcNBu concentration in the plasma.
In the figure, Curves labeled with -●- and -▴- represent plasma GlcNBu concentration following oral administration of GlcNBu (232 mg/kg, or 0.93 mmol/kg) and compound 16 ([…], or 0.93 mmol/kg), respectively. […] FIG. 2A and FIG. 2B show examples of other compounds of the invention, presented in plasma GlcNBu concentration versus time curves; a summary of pharmacokinetic parameters for these compounds is given in Table 4 and Table 5.

[4] = test system: destructive arthritis rat model; details: cited from earlier work
[5] = test system: OVX rat; details: GlcNBu feeding in the OVX rat; cited from earlier work
[6] = rats; data from i.v., i.p., and p.o. studies; cited from earlier work
[7] = rats; cited from earlier work
[8] = humans, cited from earlier work
[9] = G2, histopathology after 4 weeks of dosing

Compound: CCCC(=O)N[C@H]1C(O)O[C@H](COC(=O)CCC)[C@@H](OC(=O)CCC)[C@@H]1O (stereo partly drawn) [Compound 16, 2-N-4,6-O-tributyryl-D-glucosamine]
- Weight bearing, mean ([1]; MIA rats, Group 2, 234 mg/kg, Day 3): 32.07%
- Weight bearing, mean ([1]; MIA rats, Group 2, 234 mg/kg, Day 5): 35.76** %
- Weight bearing, mean ([1]; MIA rats, Group 2, 234 mg/kg, Day 7): 37.72%
- Weight bearing, mean ([1]; MIA rats, Group 2, 234 mg/kg, Day 14): 40.86%
- Weight bearing, mean ([1]; MIA rats, Group 2, 234 mg/kg, Day 21): 44.12%
- Weight bearing, mean ([1]; MIA rats, Group 2, 234 mg/kg, Day 28): 45.90%
- Weight bearing, mean ([1]; MIA rats, Group 2, 234 mg/kg, Pre-Injection (Day 0) baseline): 50.49%
- Weight bearing, mean ([1]; MIA rats, Group 3, 468 mg/kg, Day 3): 34.56%
- Weight bearing, mean ([1]; MIA rats, Group 3, 468 mg/kg, Day 5): 37.40** %
- Weight bearing, mean ([1]; MIA rats, Group 3, 468 mg/kg, Day 7): 39.23%
- Weight bearing, mean ([1]; MIA rats, Group 3, 468 mg/kg, Day 14): 41.68* %
- Weight bearing, mean ([1]; MIA rats, Group 3, 468 mg/kg, Day 21): 44.25%
- Weight bearing, mean ([1]; MIA rats, Group 3, 468 mg/kg, Day 28): 44.98%
- Weight bearing, mean ([1]; MIA rats, Group 3, 468 mg/kg, Pre-Injection (Day 0) baseline): 50.25%
- weight bearing on the back-right leg versus vehicle ([1]; MIA rats, day 5, all compound-treated groups (234 and 468 mg/kg)): significant increases
- weight bearing versus vehicle ([1]; MIA rats, high dose (G3, 468 mg/kg), day 14): significant increases
- osteophytes versus vehicle group ([1]; MIA rats, high dose group (468 mg/kg), histology): significantly decreased
- all other mean values for each histological parameter ([1]; MIA rats, high dose treated group (468 mg/kg)): clear trend of lowering
- articular cartilage degeneration ([1]; MIA-induced OA rat model): slowed
- degeneration changes of chondrocyte clustering, G2 compared with G1 [2]: significantly lower; also recorded: significantly less
- values in all histology parameters, G2 versus G1 [2]: lower
- weight bearing on the right paw, G2 compared with G1 ([2]; Day 3 and Days 14-28): significantly increased; also recorded: significantly more
- Weight bearing (right paw, %), mean ([2]; Day 3): 36.68* %
- Weight bearing (right paw, %), mean ([2]; Day 5): 39.76%
- Weight bearing (right paw, %), mean ([2]; Day 7): 40.68%
- Weight bearing (right paw, %), mean ([2]; Day 14): 42.71* %
- Weight bearing (right paw, %), mean ([2]; Day 21): 43.73** %
- Weight bearing (right paw, %), mean ([2]; Day 28): 44.06** %
- Weight bearing (right paw, %), mean ([2]; Pre-injection baseline): 49.55%
- Chondrocyte clustering (0-4), mean [2, 9]: 1.17*
- Degenerative changes in cartilage (0-4), mean [2, 9]: 1.17
- Inflammatory response in subchondral bone region (0-4), mean [2, 9]: 0.00
- Nature of predominant tissue (0-4), mean [2, 9]: 1.00
- Neo-vascularization (0-4), mean [2, 9]: 0.00
- Osteophytes (0-4), mean [2, 9]: 1.17
- Structural integrity (0-4), mean [2, 9]: 1.17
- Surface regularity (0-4), mean [2, 9]: 1.67
- Total scoring, mean [2, 9]: 7.33

Compound: CCCC(=O)N[C@@H]1C(OC(=O)CCC)O[C@H](COC(=O)CCC)[C@@H](OC(=O)CCC)[C@@H]1O (stereo partly drawn) [Compound 74, 2-N-1,4,6-tri-O-tetrabutyryl-D-glucosamine]
- AUC0-t [3]: 662 ng·h/mL
- AUC0-∞ [3]: 889 ng·h/mL
- CLz/F [3]: 367 mL/min/kg
- Cmax [3]: 426 ng/mL
- Tmax [3]: 0 h
- t1/2z [3]: 1 h

Compound: CCCC(=O)N[C@H]1C(OCc2ccccc2)O[C@H](CO)[C@@H](O)[C@@H]1O (stereo partly drawn) [Compound 75, 1-O-benzyl-2-N-butyryl-D-glucosamine]
- AUC0-t [3]: (—)
- AUC0-∞ [3]: (—)
- CLz/F [3]: (—)
- Cmax [3]: (—)
- Tmax [3]: (—)
- Vz/F [3]: (—)
- t1/2z [3]: (—)

Compound: CCCC(=O)N[C@H]1C(OCc2ccccc2)O[C@H](CO)[C@@H](O)[C@@H]1OCc1ccccc1 (stereo partly drawn) [Compound 76, 2-N-butyryl-1,3-di-O-benzyl-D-glucosamine]
- AUC0-t [3]: (—)
- AUC0-∞ [3]: (—)
- CLz/F [3]: (—)
- Cmax [3]: (—)
- Tmax [3]: (—)
- Vz/F [3]: (—)
- t1/2z [3]: (—)

Compound: CCCC(=O)N[C@H]1C(O)O[C@H](COC(=O)CCC(=O)O)[C@@H](OC(=O)CCC(=O)O)[C@@H]1O (stereo partly drawn) [Compound 79, 2-N-butyryl-4,6-di-O-(4-hydroxy-4-oxo-butyryl)-D-glucosamine]
- AUC0-t [3]: (—)
- AUC0-∞ [3]: (—)
- CLz/F [3]: (—)
- Cmax [3]: (—)
- Tmax [3]: (—)
- Vz/F [3]: (—)
- t1/2z [3]: (—)

Compound: CCCC(=O)N[C@H]1C(O)O[C@H](CO)[C@@H](O[C@@H]2O[C@H](CO)[C@@H](O)[C@H](O)[C@H]2O)[C@@H]1O (stereo partly drawn) [Compound 89, 2-N-butyryl-4-O-(D-glucopyranosyl)-D-glucosamine]
- AUC0-t [3]: 1757 ng·h/mL
- AUC0-∞ [3]: 1942 ng·h/mL
- CLz/F [3]: 167 mL/min/kg
- Cmax [3]: 1110 ng/mL
- Tmax [3]: 2 h
- t1/2z [3]: 1 h

Compound: CCCC(=O)N[C@H]1C(O)O[C@H](COC(=O)NCCCC(=O)O)[C@@H](O)[C@@H]1O (stereo partly drawn) [Compound 94, 2-N-butyryl-6-O-((3-carboxy-1-propyl)aminocarbonyl)-D-glucosamine]
- AUC0-t [3]: (—)
- AUC0-∞ [3]: (—)
- CLz/F [3]: (—)
- Cmax [3]: (—)
- Tmax [3]: (—)
- Vz/F [3]: (—)
- t1/2z [3]: (—)

Compound: CCCC(=O)N[C@H]1C(O)O[C@H](CO)[C@@H](O)[C@@H]1O (stereo partly drawn) [GlcNBu, N-butyryl glucosamine]
- subchondral bone structure [4]: preserved strikingly
- bone mineral and some biomechanical properties [5]: preserves
- half-life [6]: about 20 min

Compound: N[C@H]1C(O)O[C@H](CO)[C@@H](O)[C@@H]1O (stereo partly drawn) [Glucosamine, glucosamine]
- oral bioavailability (F) [7]: 0.19-0.21
- serum levels ([8]; very large doses, after oral or IV administration): cannot be detected

Compound: CC(=O)N[C@H]1C(O)O[C@H](CO)[C@@H](O)[C@@H]1O (stereo partly drawn) [N-acetylglucosamine]
- half-life compared with glucosamine ([8]; polyvalent or monovalent form): longer
